{"source": "ChEMBL document CHEMBL1201862", "about": "“PubChem BioAssay data set” (2004)", "key": {"[1]": {"experiment": "viability of PTEN-deleted HCT116 cells – cell-based, HCT116 PTEN knockout, dose response (AID 1047);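 note: HCT116 colon tumor cells with PTEN knocked out; cells exposed to compound for 60 hours before readout; potency for loss of cell viability measured by luminescence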", "type": "functional"}, "A-375 [2]": {"tested_on": "A-375", "experiment": "proliferation inhibition in MITF-low A375 cells – cell-based, cherry-pick samples, set 2, counter-screen for MITF modulator project, dose response (AID 540335)", "type": "functional", "details": "Homo sapiens"}, "A-375 [3]": {"tested_on": "A-375", "experiment": "MITF: Counter assay: A375 proliferation Measured in Cell-Based System Using Plate Reader - 2084-03_Inhibitor_Dose_DryPowder_Activity. [Related pubchem assays (depositor defined):AID488944]", "type": "functional", "details": "Homo sapiens"}, "[4]": {"experiment": "viability of HCT116 lacking mutant beta-catenin – cell-based, human colon tumor, dose response (AID 1045);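 note: HCT116 colon tumor cells with beta catenin knocked out; cells exposed to compound for 60 hours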", "type": "functional"}, "[5]": {"target": "T1, Microphthalmia-associated transcription factor (Homo sapiens, UniProt O75030)", "T1 sequence (O75030 whole entry)": "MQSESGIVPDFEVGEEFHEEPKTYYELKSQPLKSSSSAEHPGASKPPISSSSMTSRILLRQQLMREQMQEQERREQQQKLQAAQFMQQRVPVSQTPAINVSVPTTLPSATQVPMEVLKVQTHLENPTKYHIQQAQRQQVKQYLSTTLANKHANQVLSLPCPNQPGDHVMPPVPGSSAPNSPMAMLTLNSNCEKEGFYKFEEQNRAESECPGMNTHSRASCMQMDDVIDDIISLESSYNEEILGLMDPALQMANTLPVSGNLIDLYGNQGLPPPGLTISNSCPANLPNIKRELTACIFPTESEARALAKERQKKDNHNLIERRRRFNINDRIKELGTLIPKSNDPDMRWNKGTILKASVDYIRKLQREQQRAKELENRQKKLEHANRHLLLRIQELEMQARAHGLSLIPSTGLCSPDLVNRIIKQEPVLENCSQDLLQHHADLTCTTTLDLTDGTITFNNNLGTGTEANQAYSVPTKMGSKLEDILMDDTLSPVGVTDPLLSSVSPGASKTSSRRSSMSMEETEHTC", "experiment": "reducers of TRPM1 reporter luminescence, concentration series – cell-based, SK-MEL-5, cherry-picked, set 3, MITF inhibitor project, dose response (AID 493073)", "type": "functional"}, "[6]": {"target": "Heat shock protein HSP 90-alpha (Homo sapiens, UniProt P07900)", "type": "functional, organism-based"}, "[7]": {"experiment": "luciferase reporter signal suppression in cells – H4 neuroglioma cells, luminescence, dose response (AID 1990)", "type": "functional, cell-based"}, "Beta-galactosidase": {"target": "Beta-galactosidase (Escherichia coli, UniProt Q8VNN2)", "sequence (Q8VNN2 whole entry)": "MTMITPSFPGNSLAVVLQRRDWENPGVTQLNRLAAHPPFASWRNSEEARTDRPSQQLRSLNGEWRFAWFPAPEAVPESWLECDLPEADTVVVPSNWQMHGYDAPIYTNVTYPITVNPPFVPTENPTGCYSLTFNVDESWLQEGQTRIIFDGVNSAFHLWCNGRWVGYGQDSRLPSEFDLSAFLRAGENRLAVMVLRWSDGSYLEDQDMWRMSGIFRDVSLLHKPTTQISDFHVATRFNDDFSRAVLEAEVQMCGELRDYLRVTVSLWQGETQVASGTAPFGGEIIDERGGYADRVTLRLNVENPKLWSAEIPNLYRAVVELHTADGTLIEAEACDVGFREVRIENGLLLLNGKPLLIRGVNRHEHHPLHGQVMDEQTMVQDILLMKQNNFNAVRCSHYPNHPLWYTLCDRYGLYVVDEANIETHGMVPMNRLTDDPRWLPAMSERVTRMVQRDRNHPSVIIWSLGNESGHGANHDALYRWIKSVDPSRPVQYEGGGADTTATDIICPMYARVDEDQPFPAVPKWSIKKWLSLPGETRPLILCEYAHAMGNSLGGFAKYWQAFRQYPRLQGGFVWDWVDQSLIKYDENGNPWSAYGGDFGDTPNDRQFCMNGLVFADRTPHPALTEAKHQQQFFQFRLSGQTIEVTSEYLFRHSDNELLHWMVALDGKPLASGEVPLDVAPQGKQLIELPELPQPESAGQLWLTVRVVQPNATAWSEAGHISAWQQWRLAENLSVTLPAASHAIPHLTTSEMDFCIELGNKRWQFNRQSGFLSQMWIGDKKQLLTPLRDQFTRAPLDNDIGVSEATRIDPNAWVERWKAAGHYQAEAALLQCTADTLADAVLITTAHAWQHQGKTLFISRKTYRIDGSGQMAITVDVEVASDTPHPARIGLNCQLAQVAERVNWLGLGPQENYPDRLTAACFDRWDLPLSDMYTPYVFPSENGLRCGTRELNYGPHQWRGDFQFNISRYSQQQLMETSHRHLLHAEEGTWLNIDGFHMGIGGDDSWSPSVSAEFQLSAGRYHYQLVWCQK", "experiment": "PubChem AID 485352", "type": "functional"}, "[8]": {"target": "Type-1 angiotensin II receptor (Homo sapiens, UniProt P30556)", "sequence (P30556 whole entry)": "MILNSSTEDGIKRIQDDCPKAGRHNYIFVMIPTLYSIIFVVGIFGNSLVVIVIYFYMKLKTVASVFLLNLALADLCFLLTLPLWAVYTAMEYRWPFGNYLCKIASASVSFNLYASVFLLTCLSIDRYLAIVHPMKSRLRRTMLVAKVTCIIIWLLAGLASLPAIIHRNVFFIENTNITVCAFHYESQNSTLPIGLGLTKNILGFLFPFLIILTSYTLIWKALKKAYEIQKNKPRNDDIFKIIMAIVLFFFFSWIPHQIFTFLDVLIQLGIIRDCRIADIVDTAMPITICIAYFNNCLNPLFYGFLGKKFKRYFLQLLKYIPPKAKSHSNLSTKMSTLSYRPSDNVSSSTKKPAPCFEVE", "experiment": "antagonism of angiotensin II type 1 receptor – cell-based, uHTS hits, selectivity assay for APJ receptor antagonist project, dose response (AID 463214);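 note: antagonist potency against angiotensin II stimulated AT1 response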", "type": "functional"}, "[9]": {"target": "T2, Short transient receptor potential channel 4 (Mus musculus, UniProt Q9QUQ5)", "T2 sequence (Q9QUQ5 whole entry)": "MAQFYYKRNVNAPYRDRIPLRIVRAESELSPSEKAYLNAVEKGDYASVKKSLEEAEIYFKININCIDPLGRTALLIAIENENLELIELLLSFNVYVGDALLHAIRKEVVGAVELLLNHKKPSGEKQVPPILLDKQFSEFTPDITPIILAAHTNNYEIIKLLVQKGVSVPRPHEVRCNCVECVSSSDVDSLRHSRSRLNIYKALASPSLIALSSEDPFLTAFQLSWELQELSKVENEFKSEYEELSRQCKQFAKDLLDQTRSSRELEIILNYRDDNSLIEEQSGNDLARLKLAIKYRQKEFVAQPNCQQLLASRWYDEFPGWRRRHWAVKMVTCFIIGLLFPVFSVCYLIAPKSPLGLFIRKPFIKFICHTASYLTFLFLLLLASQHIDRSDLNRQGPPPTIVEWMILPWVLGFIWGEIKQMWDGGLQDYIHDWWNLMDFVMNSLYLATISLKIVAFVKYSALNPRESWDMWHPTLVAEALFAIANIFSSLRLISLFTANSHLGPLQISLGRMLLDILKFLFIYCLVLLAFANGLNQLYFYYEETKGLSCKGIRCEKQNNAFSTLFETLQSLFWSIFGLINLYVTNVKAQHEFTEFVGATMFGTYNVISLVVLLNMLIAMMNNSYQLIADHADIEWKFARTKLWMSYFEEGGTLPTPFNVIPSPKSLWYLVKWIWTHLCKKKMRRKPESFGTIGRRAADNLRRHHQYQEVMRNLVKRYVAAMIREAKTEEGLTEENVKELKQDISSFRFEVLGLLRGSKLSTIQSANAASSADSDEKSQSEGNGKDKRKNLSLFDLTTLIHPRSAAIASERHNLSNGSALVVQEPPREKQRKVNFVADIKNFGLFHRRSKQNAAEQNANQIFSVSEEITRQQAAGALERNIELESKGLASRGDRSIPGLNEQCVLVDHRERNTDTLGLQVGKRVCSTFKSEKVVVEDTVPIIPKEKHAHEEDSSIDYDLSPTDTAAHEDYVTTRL", "experiment": "calcium entry via TRPC4 opening agents – cell-based, HEK293 TRPC4/mu-opioid, Fluo-4 calcium, dose response (AID 434937)", "type": "functional"}, "[10]": {"experiment": "Luminescence Cell-Based Dose Response HTS to Identify Inhibitors of 5'UTR Stem-Loop Driven Prion Protein mRNA Translation in H4 Neuroglioblastoma Cells. [Related pubchem assays: 1827 (Project Summary), 1813 (Primary HTS)]", "type": "functional"}, "[11]": {"experiment": "alpha-synuclein stem-loop luciferase translation blockers – H4 neuroglioma cells, luminescence, confirmation (AID 1988)", "type": "functional, cell-based"}, "[12]": {"target": "Ras and Rab interactor 1/Tyrosine-protein kinase ABL1 (Homo sapiens, UniProt P00519+Q13671)", "sequence (P00519 whole entry)": "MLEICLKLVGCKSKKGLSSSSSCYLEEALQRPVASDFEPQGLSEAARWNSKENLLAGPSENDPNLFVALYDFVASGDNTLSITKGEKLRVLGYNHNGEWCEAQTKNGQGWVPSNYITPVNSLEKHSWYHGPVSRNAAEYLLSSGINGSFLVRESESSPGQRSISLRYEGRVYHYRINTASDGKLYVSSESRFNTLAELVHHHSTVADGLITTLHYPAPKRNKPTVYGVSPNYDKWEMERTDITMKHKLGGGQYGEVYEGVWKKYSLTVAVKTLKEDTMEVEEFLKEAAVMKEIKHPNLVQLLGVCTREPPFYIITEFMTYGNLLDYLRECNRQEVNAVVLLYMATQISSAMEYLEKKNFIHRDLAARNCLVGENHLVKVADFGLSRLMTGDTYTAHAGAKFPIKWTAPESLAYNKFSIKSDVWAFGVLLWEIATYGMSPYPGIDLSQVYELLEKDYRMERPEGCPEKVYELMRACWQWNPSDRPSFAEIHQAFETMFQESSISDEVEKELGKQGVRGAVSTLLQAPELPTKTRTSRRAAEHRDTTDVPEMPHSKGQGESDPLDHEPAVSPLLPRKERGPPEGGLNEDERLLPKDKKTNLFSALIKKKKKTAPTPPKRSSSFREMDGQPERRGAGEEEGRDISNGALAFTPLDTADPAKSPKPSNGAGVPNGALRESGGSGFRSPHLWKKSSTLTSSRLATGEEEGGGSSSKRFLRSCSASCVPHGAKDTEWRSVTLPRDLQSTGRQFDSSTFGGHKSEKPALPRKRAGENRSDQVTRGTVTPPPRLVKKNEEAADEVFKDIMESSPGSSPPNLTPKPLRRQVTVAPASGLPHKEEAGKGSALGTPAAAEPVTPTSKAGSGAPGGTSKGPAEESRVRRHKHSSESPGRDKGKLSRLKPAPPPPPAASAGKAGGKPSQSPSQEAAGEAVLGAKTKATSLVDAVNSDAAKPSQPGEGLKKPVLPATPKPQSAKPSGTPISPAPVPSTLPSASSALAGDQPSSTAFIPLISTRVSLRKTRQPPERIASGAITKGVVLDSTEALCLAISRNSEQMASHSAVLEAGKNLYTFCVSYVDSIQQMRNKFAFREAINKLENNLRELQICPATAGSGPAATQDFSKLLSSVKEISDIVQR", "sequence (Q13671 whole entry)": "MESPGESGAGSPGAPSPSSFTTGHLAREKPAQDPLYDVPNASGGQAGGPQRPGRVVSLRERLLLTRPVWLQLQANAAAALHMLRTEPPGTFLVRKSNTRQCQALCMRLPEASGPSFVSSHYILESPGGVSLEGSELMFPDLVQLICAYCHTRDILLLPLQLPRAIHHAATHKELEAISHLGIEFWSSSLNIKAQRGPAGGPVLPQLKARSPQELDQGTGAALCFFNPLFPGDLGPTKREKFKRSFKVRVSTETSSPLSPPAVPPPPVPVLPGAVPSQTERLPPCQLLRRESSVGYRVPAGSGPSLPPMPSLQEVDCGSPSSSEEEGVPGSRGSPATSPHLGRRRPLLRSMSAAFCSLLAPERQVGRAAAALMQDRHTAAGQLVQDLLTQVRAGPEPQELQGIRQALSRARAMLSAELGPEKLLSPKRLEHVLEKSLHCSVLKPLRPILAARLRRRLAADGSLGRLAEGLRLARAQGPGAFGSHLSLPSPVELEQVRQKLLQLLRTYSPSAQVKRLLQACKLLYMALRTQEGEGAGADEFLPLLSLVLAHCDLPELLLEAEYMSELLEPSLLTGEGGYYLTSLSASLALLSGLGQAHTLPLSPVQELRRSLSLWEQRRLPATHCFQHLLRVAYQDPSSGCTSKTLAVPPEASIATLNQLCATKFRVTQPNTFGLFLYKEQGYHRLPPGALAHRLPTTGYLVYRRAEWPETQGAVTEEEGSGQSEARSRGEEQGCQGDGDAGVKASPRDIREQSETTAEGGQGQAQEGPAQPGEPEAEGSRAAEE", "type": "functional"}}, "note": "Active and inactive are the calls of the source."}
{"smiles": "O=C(/C=C/c1cccc([N+](=O)[O-])c1)c1cccs1", "values": [{"measurement": "EC50", "setting": "[1]", "value": "14.3 µM (active)"}, {"measurement": "AC50", "setting": "A-375 [2]", "value": "> 35 µM (active)"}, {"measurement": "AC50", "setting": "A-375 [3]", "value": "> 35 µM (active)"}, {"measurement": "EC50", "setting": "[4]", "value": "10.9 µM (active)"}, {"measurement": "AC50", "setting": "[5]", "value": "15.3 µM (active)"}, {"measurement": "AC50", "setting": "[6]", "value": "4.16 µM (active)"}]}
{"smiles": "COc1ccccc1C(=O)NNC(=S)NC(=O)c1cccs1", "values": [{"measurement": "EC50", "setting": "[7]", "value": "> 120 µM (not active)"}, {"measurement": "EC50", "setting": "Beta-galactosidase", "value": "> 40 µM (inactive)"}, {"measurement": "IC50", "setting": "[8]", "value": "20.4 µM (not active)"}, {"measurement": "EC50", "setting": "[9]", "value": "6.68 µM (active)"}, {"measurement": "EC50", "setting": "[10]", "value": "13.2 µM (active)"}, {"measurement": "EC50", "setting": "[11]", "value": "> 120 µM (not active)"}, {"measurement": "AC50", "setting": "[6]", "value": "3.85 µM (active)"}]}
{"smiles": "O=C1CNC(=O)/C1=C\\NC12CC3CC(CC(C3)C1)C2", "values": [{"measurement": "IC50", "setting": "[12]", "value": "21 µM (inactive)"}]}
{"smiles": "CCOC(=O)C1=C(C)N=C2CC(c3cccs3)CC(O)=C2C1c1cccs1", "note": "(stereo unspecified)", "values": [{"measurement": "EC50", "setting": "Beta-galactosidase", "value": "39.3 µM (active)"}, {"measurement": "IC50", "setting": "[8]", "value": "36 µM (not active)"}]}
